The text below walks through data of patent US10556879B2, “Retinoid compound, preparation method therefor, intermediates thereof and application thereof” (SHANGHAI INSTITUTE OF ORGANIC CHEMISTRY, CHINESE ACADEMY OF …, priority 2016, dated 2020).

Molecules are shown by their SMILES. Like-named read-outs stand apart in the source and are kept apart here.

The assay concerns tumor-repopulating cells of B16-F1 melanoma. The assay is described as follows: Inhibitory activity on proliferation of tumor-repopulating cells (TRCs) of B16-F1 melanoma in 3D fibrin gel. The assay is classed as cell-based. The note with it: for IC50: colony tumor volume, read-out: IC50 of inhibition on TRCs of B16-F1 melanoma/μM. The protocol:
B16-F1 Melanoma cells were incubated with 3D fibrin gel medium (90-Pa) for 5 days, and the desired tumor-repopulating cells of melanoma were screened (Nat. Mater. 2012, 11, 734). Subsequently, the culture medium was respectively treated with collagenase and neutral protease II, and the tumor-repopulating cells of B16-F1 melanoma were released, then the obtained repopulating cells were transferred to a freshly prepared medium to be resuspended and maintained at single-cell state. The tumor-repopulating cells of B16-F1 melanoma were inoculated in 3D fibrin gel medium (90-Pa) for 5 days, with 0.1% DMSO as the negative control group, Tazarotene and Bexarotene as the positive control drugs respectively, […] for 5 days. The colony tumor size was measured and calculated, and the inhibition rate of each drug on the tumor-repopulating cells of B16-F1 melanoma was calculated. The results of inhibitory activity of the compound of the present invention on the proliferation of tumor-repopulating cells of B16-F1 melanoma were shown in Table 2 below.

Setting [1] is: Mus musculus, B16-F1, 120 h, 10 μM, incubated 5 days, colony tumor size, read-out: Inhibition rate on TRCs of B16-F1 melanoma at a concentration of 10 μM (%).
[2] abbreviates: Mus musculus, B16-F1, dose-response curve.
[3] abbreviates: Mus musculus, B16-F1, 10 μM (Table 3), read-out: Inhibition rate on TRCs of B16-F1 melanoma at a concentration of 10 μM/%.

Take `C=C(c1ccc(C(=O)O)cc1)c1cc2c(cc1C)C(C)(C)CCC2(C)C` [Bexarotene, reference compound]: the inhibition at 10 µM under setting [1] was determined as 63.3%.
Regarding `CCOC(=O)c1ccc(C#Cc2ccc3c(c2)C(C)(C)CCS3)nc1` [Tazarotene, reference compound], the inhibition at 10 µM under setting [1] was 67.6%.
Still for that read-out and setting: as for `COC(=O)c1ccc(C#Cc2ccc3c(c2)C(C)(C)CCS3)cc1O` [WYC-101, methyl 4-((4,4-dimethylthiochroman-6-yl)ethynyl)-2-hydroxybenzoate], the figure is 76%; as for `COC(=O)c1ccc(C#Cc2ccc3c(c2)C(C)(C)CCS3)cc1OC` [WYC-102, methyl 4-((4,4-dimethylthiochroman-6-yl)ethynyl)-2-methoxybenzoate], 59.1%.
Regarding `CC1(C)CCSc2ccc(C#Cc3ccc(C(=O)O)c(O)c3)cc21` [WYC-105, 4-((4,4-dimethylthiochroman-6-yl)ethynyl)-2-hydroxybenzoic Acid], under “Mus musculus, B16-F1, 120 h, read-out: Inhibition rate on TRCs of B16-F1 melanoma at a concentration of 10 μM (%)”, the inhibition at 10 µM is 64.1%.
As to `COc1cc(C#Cc2ccc3c(c2)C(C)(C)CCS3)ccc1C(=O)O` [WYC-106], the inhibition at 10 µM under setting [1] is 72.4%.
Turning to `COC(=O)c1ccc(C#Cc2ccc3c(c2)C(C)(C)CCS3)c(O)c1` [WYC-107, methyl 4-((4,4-dimethylthiochroman-6-yl)ethynyl)-3-hydroxybenzoate], the inhibition at 10 µM under setting [1] came out at 75% and the inhibition at 10 µM under setting [3] was 75%. Also, the IC50 under setting [2] was 2.12 µM.
As to `CC1(C)CCSc2ccc(C#Cc3cnc(C#N)nc3)cc21` [WYC-202, 2-cyano-5-((4,4-dimethylthiochroman-6-yl)ethynyl)pyrimidine], the inhibition at 10 µM under setting [1] was found to be 85.3%.
Take `CCOC(=O)c1cnc(C#Cc2ccc3c(c2)C(C)(C)CCS3)nc1` [WYC-203, ethyl 2-((4,4-dimethylthiochroman-6-yl)ethynyl)pyrimidin-5-carboxylate]: the inhibition at 10 µM under setting [1] was found to be 90.5%.
As to `COC(=O)c1ncc(C#Cc2ccc3c(c2)C(C)(C)CCS3)cn1` [WYC-204, methyl 5-((4,4-dimethylthiochroman-6-yl)ethynyl)pyrimidin-2-carboxylate], the inhibition at 10 µM under setting [1] amounted to 25.6%.
Still for that read-out and setting: as for `CCOC(=O)c1ncc(C#Cc2ccc3c(c2)C(C)(C)CCS3)cn1` [WYC-205, ethyl 5-((4,4-dimethylthiochroman-6-yl)ethynyl)pyrimidin-2-carboxylate], the figure is 91.5%.
`CC1(C)CCSc2ccc(C#Cc3ncc(C(=O)O)cn3)cc21` [WYC-206, 2-((4,4-dimethylthiochroman-6-yl)ethynyl)pyrimidin-5-carboxylic acid]: the inhibition at 10 µM under setting [1] came to 77.2%.
Consider `CC1(C)CC[S+]([O-])c2ccc(C#Cc3cnc(C#N)nc3)cc21` (centres unmarked) [WYC-207, 2-cyano-5-((4,4-dimethyl-1-oxothiochroman-6-yl)ethynyl)pyrimidine], for which the inhibition at 10 µM is, setting by setting: under setting [1], 92.5%; under setting [3], 92.5%. Moreover, the IC50 under setting [2] is 3.3 µM.
Consider `CCOC(=O)c1ncc(C#Cc2ccc3c(c2)C(C)(C)CC[S+]3[O-])cn1` (centres unmarked) [WYC-208, ethyl 5-((4,4-dimethyl-1-oxothiochroman-6-yl)ethynyl)pyrimidin-2-carboxylate], for which, under setting [1], the inhibition at 10 µM was 27.7%.
Consider `CCOC(=O)c1cnc(C#Cc2ccc3c(c2)C(C)(C)CC[S@+]3[O-])nc1` [WYC-209A, ethyl 2-((4,4-dimethyl-1S-oxothiochroman-6-yl)ethynyl)pyrimidin-5-carboxylate], for which, under “10 μM (Table 3)”, the “Inhibition rate on TRCs of B16-F1 melanoma at a concentration of 10 μM/%” value amounted to 98.9%. For the same compound, the “Inhibition rate on TRCs of B16-F1 melanoma at a concentration of 10 μM (%)” value (10 μM, incubated 5 days, colony tumor size) is 98.9%. The IC50 (dose-response curve) stood at 0.15 µM.
As to `CCOC(=O)c1cnc(C#Cc2ccc3c(c2)C(C)(C)CC[S@@+]3[O-])nc1` [WYC-209B, ethyl 2-((4,4-dimethyl-1R-oxothiochroman-6-yl)ethynyl)pyrimidin-5-carboxylate], the inhibition at 10 µM by setting is: under setting [1], 98.7%; under setting [3], 98.7%. Moreover, the IC50 under setting [2] was 0.22 µM.
Regarding `CC1(C)CC[S+]([O-])c2ccc(C#Cc3ncc(C(=O)O)cn3)cc21` (centres unmarked) [WYC-210, 2-((4,4-dimethyl-1-oxothiochroman-6-yl)ethynyl)pyrimidin-5-carboxylic Acid], under setting [1], the inhibition at 10 µM came to 18.1%.
In the case of `CC1(C)CCSc2ccc(C#Cc3ccc(C(=O)O)c(N)c3)cc21` [WYC-212, 2-amino-4-((4,4-dimethylthiochroman-6-yl)ethynyl)benzoic Acid], the inhibition at 10 µM worked out at 93.2% under setting [1] and 93.2% under setting [3]. Moreover, the IC50 under setting [2] is 2.28 µM.
For `CC(=O)Nc1cc(C#Cc2ccc3c(c2)C(C)(C)CCS3)ccc1C(=O)O` [WYC-213, 2-acetamido-4-((4,4-dimethylthiochroman-6-yl)ethynyl)benzoic Acid], the inhibition at 10 µM under setting [1] came out at 71.1%.
Same read-out and setting: as for `CC1(C)CC[S+]([O-])c2ccc(C#Cc3ccc(C(=O)O)c(N)c3)cc21` (centres unmarked) [WYC-214, 2-amino-4-((4,4-dimethyl-1-oxothiochroman-6-yl)ethynyl)benzoic Acid], the figure is 51.6%.
For `COC(=O)c1ccc(C#Cc2ccc3c(c2)C(C)(C)CC[S+]3[O-])cc1N` (centres unmarked) [WYC-215, methyl 2-amino-4-((4,4-dimethyl-1-oxothiochroman-6-yl)ethynyl)benzoate], under setting [1], the inhibition at 10 µM amounted to 80.2%.
Consider `CCOC(=O)c1ccc(C#Cc2ccc3c(c2)C(C)(C)CCS3)cc1N` [WYC-216, ethyl 2-amino-4-((4,4-dimethylthiochroman-6-yl)ethynyl)benzoate], for which the inhibition at 10 µM under setting [1] was determined as 84%.
On the same count and under the same terms, as for `CCOC(=O)c1ccc(C#Cc2ccc3c(c2)C(C)(C)CCS3)cc1NC(C)=O` [WYC-217, ethyl 2-acetamido-4-((4,4-dimethylthiochroman-6-yl)ethynyl)benzoate], the figure is 90.3%; as for `CCOC(=O)c1ccc(C#Cc2ccc3c(c2)C(C)(C)CC[S+]3[O-])cc1N` (centres unmarked) [WYC-218, ethyl 2-amino-4-((4,4-dimethyl-1-oxothiochroman-6-yl)ethynyl)benzoate], 90.4%; as for `CNc1cc(C#Cc2ccc3c(c2)C(C)(C)CCS3)ccc1C(=O)OC` [WYC-219, methyl 2-methylamino-4-((4,4-dimethylthiochroman-6-yl)ethynyl)benzoate], 64.8%.
The same measure, in the same setting: in the case of `COC(=O)c1ccc(C#Cc2ccc3c(c2)C(C)(C)CCS3)cc1N` [WYC-220, methyl 2-amino-4-((4,4-dimethylthiochroman-6-yl)ethynyl)benzoate] it was 65.5%; in that of `COC(=O)c1ccc(C#Cc2ccc3c(c2)C(c2ccccc2)=CCC3(C)C)cc1O` [WYC-301, methyl 4-((5,5-dimethyl-8-phenyl-5,6-dihydronaphth-2-yl)ethynyl)-2-hydroxybenzoate], 34.4%; in that of `CCOC(=O)c1ccc(C#Cc2ccc3c(c2)C(c2ccccc2)=CCC3(C)C)cc1O` [WYC-302, ethyl 4-((5,5-dimethyl-8-phenyl-5,6-dihydronaphth-2-yl)ethynyl)-2-hydroxybenzoate], 21.9%.
Same read-out and setting: in the case of `CCOC(=O)c1ccc(C#Cc2ccc3c(c2)C(C)(C)CCS3)cc1F` [WYC-303, ethyl 2-fluoro-4-((4,4-dimethylthiochroman-6-yl)ethynyl)benzoate] it was 71.1%; in that of `CC1(C)CCSc2ccc(C#Cc3ccc(C(=O)O)c(F)c3)cc21` [WYC-304, 2-fluoro-4-((4,4-dimethylthiochroman-6-yl)ethynyl)benzoic Acid], 75.8%.
Take `CCOC(=O)c1ccc(C#Cc2ccc3c(c2)C(c2ccccc2)=CCC3(C)C)cc1F` [WYC-305, ethyl 4-((5,5-dimethyl-8-phenyl-5,6-dihydronaphth-2-yl)ethynyl)-2-fluorobenzoate]: the inhibition at 10 µM under setting [1] amounted to 26%.
Same read-out and setting: as for `CC1(C)CC=C(c2ccccc2)c2cc(C#Cc3ccc(C(=O)O)c(F)c3)ccc21` [WYC-306, 4-((5,5-dimethyl-8-phenyl-5,6-dihydronaphth-2-yl)ethynyl)-2-fluorobenzic Acid], the figure is 15.2%; as for `CCOC(=O)c1ccc(C#Cc2ccc3c(c2)C(C)(C)CCS3)c(F)c1` [WYC-307, ethyl 3-fluoro-4-((4,4-dimethylthiochroman-6-yl)ethynyl)benzoate], 70.3%; as for `CCOC(=O)c1ccc(C#Cc2ccc3c(c2)C(C)(C)CCS3)c([N+](=O)[O-])c1` [WYC-308, ethyl 3-nitro-4-((4,4-dimethylthiochroman-6-yl)ethynyl)benzoate], 71.9%.
As for `CC1(C)CCSc2ccc(C#Cc3ccc(C(=O)O)cc3[N+](=O)[O-])cc21` [WYC-309, 3-nitro-4-((4,4-dimethylthiochroman-6-yl)ethynyl)benzoic Acid], the inhibition at 10 µM under setting [1] is 56.8%.
The same measure, in the same setting: in the case of `CC1(C)CCSc2ccc(C#Cc3ccc(C(=O)O)cc3F)cc21` [WYC-310, 3-fluoro-4((4,4-dimethylthiochroman-6-yl)ethynyl)benzoic Acid] it was 76.8%; in that of `CCOC(=O)c1ccc(C#Cc2ccc3c(c2)C(C)(C)CC[S+]3[O-])c([N+](=O)[O-])c1` (centres unmarked) [WYC-311, ethyl 3-nitro-4-((4,4-dimethyl-1-oxothiochroman-6-yl)ethynyl)benzoate], 80.2%.
